The text below walks through data of patent publication US4876243A, “Vasopressin compounds” (Smithkline Beckman Corporation, priority 1987, dated 1989).

The structures appear in SMILES notation. *1 amine or outer side, *2 acyl side, *3 side chain or, on linkers, in order; H or OH if unused. Where a SMILES comes first, the peptide text is derived from it. Bridges are numbered along the chain shown (N, C = ends). [ ]: non-standard residue; d: D form. X1 = O=C(CC1(S[*:2])CCCCC1)[*:1]; αMeV = CC(C)[C@](C)(N)C(=O)O; Aib = CC(C)(N)C(=O)O

In assay [1] the target is T1, V2-vasopressin receptors (Sus scrofa, UniProt P32307).
T1 construct: in the medullary tissue of hog kidneys; from tissue; host or cells: hog kidney medullary tissue
T1 sequence (P32307 whole entry): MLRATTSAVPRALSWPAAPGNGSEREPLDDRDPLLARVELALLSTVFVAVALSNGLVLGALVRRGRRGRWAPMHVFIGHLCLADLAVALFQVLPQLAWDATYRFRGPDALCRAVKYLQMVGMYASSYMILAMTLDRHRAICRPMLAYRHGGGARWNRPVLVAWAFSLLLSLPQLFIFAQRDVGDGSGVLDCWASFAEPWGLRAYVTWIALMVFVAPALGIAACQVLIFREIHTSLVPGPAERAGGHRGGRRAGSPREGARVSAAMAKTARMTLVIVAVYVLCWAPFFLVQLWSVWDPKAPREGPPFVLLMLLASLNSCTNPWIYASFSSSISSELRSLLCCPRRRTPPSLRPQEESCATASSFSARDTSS
Put plainly: inhibition of adenylate cyclase activation by vasopressin in the medullary tissue of hog kidneys. Format: biochemical. Particulars: hog kidney medullary tissue, vasopressin-activated adenylate cyclase; read-out: Pig V2 Ki. The procedure: (§1) Antagonistic activity at the V2 -vasopressin receptors is determined in a protocol which determines in vitro activity in pig tissue or in vivo diuretic activity in the hydropenic rat (ED300 μg/kg). These procedures are described in the literature. F. Stassen et al., 1st International Conference on Diuretics, Miami, Fla., March (1984).
Antagonistic activity at the V1 -vasopressin receptors is determined in a protocol which measures the reversal of the vasopressin induced contraction of rat thoracic aorta tissue. This is expressed as KB (nM) in the table below. […] V2 -vasopressin antagonism is determined as receptor binding ability measured by inhibition of 3H-LVP binding (KB as nM), by inhibition of adenylate cyclase activation by vasopressin in the medullary tissue of hog kidneys (Ki as nM) or in vivo in the […] rat protocol (ED300 μg/kg). These procedures are described in the literature: F. Stassen et al., J. Pharmacology and Experimental Therapeutics, 223 50 (1982).

The target in assay [2] is T1, V2-vasopressin receptors. Put plainly: receptor binding ability measured by inhibition of 3H-LVP binding. Particulars: read-out: Pig V2 KB. The procedure:
as §1
(§2) Antagonistic activity at the V1 -vasopressin receptors is determined in a protocol which measures the reversal of the vasopressin induced contraction of rat thoracic aorta tissue. This is expressed as KB (nM) in the table below. Such anti-pressor activity is confirmed in a similar in vitro protocol using the plasma membranes of rat liver. V2 -vasopressin antagonism is determined as receptor binding ability measured by inhibition of 3H-LVP binding (KB as nM), by inhibition of adenylate cyclase activation by vasopressin in the medullary tissue of hog kidneys (Ki as nM) or in vivo in the […] rat protocol (ED300 μg/kg). These procedures are described in the literature: F. Stassen et al., J. Pharmacology and Experimental Therapeutics, 223 50 (1982).

For assay [3], the target named is T2, V1-vasopressin receptors (Rattus norvegicus, UniProt P30560).
T2 construct: vasopressin induced contraction of rat thoracic aorta tissue; from tissue; host or cells: rat thoracic aorta tissue
T2 sequence (P30560 whole entry): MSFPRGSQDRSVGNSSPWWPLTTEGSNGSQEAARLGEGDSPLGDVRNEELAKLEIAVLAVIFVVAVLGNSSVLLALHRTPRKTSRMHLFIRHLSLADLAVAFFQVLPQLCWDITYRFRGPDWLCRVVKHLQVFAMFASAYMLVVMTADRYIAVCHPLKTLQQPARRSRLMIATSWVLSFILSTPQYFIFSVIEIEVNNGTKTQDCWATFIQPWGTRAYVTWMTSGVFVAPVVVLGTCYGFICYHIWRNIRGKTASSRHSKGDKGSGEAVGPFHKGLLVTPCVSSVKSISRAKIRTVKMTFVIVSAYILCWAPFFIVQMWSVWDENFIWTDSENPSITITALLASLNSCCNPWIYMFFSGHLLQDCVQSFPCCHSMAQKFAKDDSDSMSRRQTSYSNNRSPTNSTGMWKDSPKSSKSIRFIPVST
Put plainly: reversal of the vasopressin induced contraction of rat thoracic aorta tissue. The procedure:
as §2

Consider `CCOc1ccc(C[C@H]2NC(=O)CC3(CCCCC3)SSC[C@@H](C(=O)NC(C)(C)C(=O)N[C@@H](CCCNC(=N)N)C(=O)NCC(N)=O)NC(=O)[C@H](CC(N)=O)NC(=O)[C@H](C(C)C)NC(=O)[C@H](Cc3ccccc3)NC2=O)cc1` [A, [1-(β,β-cyclopentamethylene-β-mercaptopropionic acid)-2-(O-ethyl-D-tyrosine)-4-valine-7-α-aminoisobutyric acid-8-arginine]vasopressin] ([dY](Et)FVNC[Aib]RG-NH2; linker N-5 via X1), for which the Ki (usually the dissociation constant of the complex between target and ligand, obtained from inhibition or displacement) in assay [1] was found to be 18 nM. Besides, the Kb in assay [2] amounted to 9.2 nM.

As to `CCOc1ccc(C[C@H]2NC(=O)CC3(CCCCC3)SSC[C@@H](C(=O)N3CCC[C@H]3C(=O)N[C@@H](CCCNC(=N)N)C(N)=O)NC(=O)[C@H](CC(N)=O)NC(=O)C(C)(C)NC(=O)[C@H](Cc3ccccc3)NC2=O)cc1` [B, [1-(β,β-cyclopentamethylene-β-mercaptopropionic acid)-2-(O-ethyl-D-tyrosine)-4-α-aminoisobutyric acid-8-arginine-9-desglycine]vasopressin] ([dY](Et)F[Aib]NCPR-NH2; linker N-5 via X1), the Ki in assay [1] is 140 nM. The Kb in assay [2] is 580 nM.

Turning to `CCOc1ccc(C[C@H]2NC(=O)CC3(CCCCC3)SSC[C@@H](C(=O)NC(C)(C)C(=O)N[C@@H](CCCNC(=N)N)C(N)=O)NC(=O)[C@H](CC(N)=O)NC(=O)[C@H](C(C)C)NC(=O)[C@H](Cc3ccccc3)NC2=O)cc1` [E, [1-(β,β-cyclopentamethylene-β-mercaptopropionic acid)-2-(O-ethyl-D-tyrosine)-4-valine-7-α-aminoisobutyric acid-8-arginine-9-desglycine]vasopressin] ([dY](Et)FVNC[Aib]R-NH2; linker N-5 via X1), the Ki in assay [1] was 16 nM. In addition, the Kb in assay [2] came out at 15 nM.

On to `CCOc1ccc(C[C@H]2NC(=O)CC3(CCCCC3)SSC[C@@H](C(=O)N3CCC[C@H]3C(=O)N[C@@H](CCCN=C(N)N)C(=O)NCC(N)=O)NC(=O)[C@H](CC(N)=O)NC(=O)[C@H](C(C)C)NC(=O)[C@H](Cc3ccccc3)NC2=O)cc1` [G, [1-(β,β-cyclopentamethylene-β-mercaptopropionic acid)-2-(O-ethyl-D-tyrosine)-4-valine-8-arginine]vasopressin, reference compound] ([dY](Et)FVNCPRG-NH2; linker N-5 via X1), for which the Kb in assay [2] is 6.7 nM; in assay [3], 1.4 nM.

Consider `COc1ccc(C[C@@H]2NC(=O)CC3(CCCCC3)SSC[C@@H](C(=O)N3CCC[C@H]3C(=O)N[C@@H](CCCNC(=N)N)C(=O)NCC(N)=O)NC(=O)[C@H](CC(N)=O)NC(=O)[C@](C)(C(C)C)NC(=O)[C@H](Cc3ccccc3)NC2=O)cc1` [D, [1-(β,β-cyclopentamethylene-β-mercaptopropionic acid)-2-(O-methyl L-tyrosine)-4-α-methylvaline-8-arginine]vasopressin] (Y(Me)F[αMeV]NCPRG-NH2; linker N-5 via X1), for which the Ki in assay [1] was found to be 490 nM. For the same compound, the Kb in assay [2] was determined as 170 nM; in assay [3], 18 nM.

As to `CCOc1ccc(C[C@H]2NC(=O)CC3(CCCCC3)SSC[C@@H](C(=O)N3CCC[C@H]3C(=O)N[C@@H](CCCNC(=N)N)C(=O)NCC(N)=O)NC(=O)[C@H](CC(N)=O)NC(=O)[C@](C)(C(C)C)NC(=O)[C@H](Cc3ccccc3)NC2=O)cc1` [C, [1-(β,β-cyclopentamethylene-β-mercaptopropionic acid)-2-(O-ethyl-D-tyrosine)-4-α-methylvaline-8-arginine]vasopressin] ([dY](Et)F[αMeV]NCPRG-NH2; linker N-5 via X1), the Ki in assay [1] was found to be 31 nM. The Kb in assay [2] was found to be 11 nM.

Regarding `COc1ccc(C[C@@H]2NC(=O)CC3(CCCCC3)SSC[C@@H](C(=O)N3CCC[C@H]3C(=O)N[C@@H](CCCN=C(N)N)C(=O)NCC(N)=O)NC(=O)[C@H](CC(N)=O)NC(=O)[C@H](C(C)C)NC(=O)[C@H](Cc3ccccc3)NC2=O)cc1` [F, [1-(β,β-cyclopentamethylene-β-mercaptopropionic acid)-2-(O-methyl-L-tyrosine)-4-valine-8-arginine]vasopressin, reference compound] (Y(Me)FVNCPRG-NH2; linker N-5 via X1), the Ki in assay [1] was 88 nM. Moreover, the Kb came to 35 nM in assay [2] and 12 nM in assay [3].
